Entries after “also recorded” stand apart in the source; their conditions may differ.
Experiments:
[1] = system: human monocyte-derived macrophages (human MDMs); assay: Real-time oxygen consumption rate (OCR) and ECAR (Seahorse) in human MDMs; format: cell-based; details: human MDMs, dose response, 20 h
Method: Cells were plated at 1.8×10^6 cells per well in a Seahorse XF24 Cell Culture Microplate (Agilent). Cells were then treated with indicated inhibitors or agonists in each experiment for 20 h. Cells were washed twice with Agilent Seahorse XF Media (Agilent) supplemented with 1 mM pyruvate, 2 mM L-glutamine, and 10 mM D-glucose; a final volume of 525 μl was placed in each well. Cells were then incubated in a 0% CO2 chamber at 37° C. for 1 h before being placed into a Seahorse XFe24 Analyzer (Agilent). For OCR and ECAR mitostress test experiments, cells were treated with 1 μM oligomycin, 2 μM carbonyl cyanide p-trifluoromethoxyphenylhydrazone (FCCP), and 0.5 μM rotenone/antimycin (indicated by three black arrows in each seahorse trace). For mitoFlex Fuel test experiments, cells were treated with UK5099 (200 μM) and BPTES (200 μM)/Etomoxir (80 μM). A total of three OCR and pH measurements were taken after each compound was administered. All Seahorse experiments were repeated at least three times unless otherwise indicated. All OCR and ECAR data were normalized to cell number per well using CyQUANT (ThermoFisher Scientific, Waltham, Mass., USA).
Peripheral blood mononuclear cells from de-identified healthy donors (young<35 years old, aged>65 years old) were obtained from the Stanford Blood Center and transferred to 50 ml conical tubes. Samples were diluted with 20 ml PBS and layered onto 10 ml of Ficoll-Paque (GE Healthcare) using a Pasteur pipette. Tubes were centrifuged at 1,500 r.p.m. for 25 min without brake at 20° C. The mononuclear cell layer was transferred to a new 50 ml conical tube, resuspended in 50 ml 1×PBS and centrifuged at 1500 r.p.m. for 10 min, repeated twice. After centrifugation, monocytes were isolated using a Monocyte Isolation Kit, human (MACS; Miltenyi Biotech). Cells were then plated 10×10^6 per 10-cm petri dish and differentiated for 7 days in Roswell Park Memorial Institute (RPMI) media supplemented with 10% FBS, 1% penicillin-streptomycin, and 50 ng ml^−1 M-CSF (Peprotech).

[2] = system: aged mice; assay: Electrophysiology: hippocampal CA1 long-term potentiation (LTP); format: in vivo, mouse; details: aged (20-22 mo) mice, 2.5 mg/kg/d, 6 weeks; 2.5 mg/kg/day
Method: To measure the cellular mechanism of learning and memory, a modified protocol previously described (Latif-Hernandez et al., Frontiers in cellular neuroscience 10, 252, (2016), incorporated herein by reference) was used. Mice were euthanized by cervical dislocation, and hippocampus (HC) was rapidly dissected out into ice-cold (4° C.) artificial cerebrospinal fluid (ACSF), saturated with carbogen (95% O2/5% CO2). ACSF consisted of (in mM): 124 NaCl, 4.9 KCl, 24.6 NaHCO3, 1.20 KH2PO4, 2.0 CaCl2, 2.0 MgSO4, 10.0 glucose, pH 7.4. […] Slices were carefully positioned on a R6501A multi-electrode array (Alpha MED Scientific Inc., Osaka, Japan) with electrodes arrayed in an 8×2 matrix with interpolar distance of 150 μm; each matrix measured 50 μm×50 μm. After 30 min incubation, the field excitatory postsynaptic potentials (fEPSPs) in CA1 were recorded by stimulating downstream electrodes in the CA1 and CA3 regions along the Schaffer collateral pathway. […] The time course of the fEPSP was calculated as the descending slope function for all experiments. […] The mean baseline fEPSP value was calculated and percentage change from baseline after the TBS was analyzed for LTP.

Question: Which “ECAR (extracellular acidification rate, glycolysis)” value [1] does the source give for `COc1ccc2cc(OCC3(C(=O)O)CN(C(=O)c4ccc(F)cc4)C3)ccc2c1` [PF-04418948] here?
Answer: The value was “increased”.

Question: And the “basal OCR (oxygen consumption)” value [1]?
Answer: Its value is “increased”.

Question: And the “LTP in CA1 hippocampal region of aged mice” value [2]?
Answer: Its value is “restored hippocampal memory function as well as LTP to youthful levels; also recorded: rescued”.

Reference: patent US20220048987A1, “METHOD OF TREATMENT TO PREVENT OR REVERSE AGE-ASSOCIATED INFLAMMATION, COGNITIVE DECLINE, AND NEURODEGENERATION” (The Board of Trustees of the Leland Stanford Junior …, priority 2020, published 2022)
